Experimental data taken from ChEMBL document CHEMBL1201862, “PubChem BioAssay data set” (2004).
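Method: 48-hour compound exposure of cells in 96-well plates, five concentrations, linear interpolation of endpoints. Abbreviation: GI50, concentration required for 50% inhibition of growth.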 Activity calls are given as the source filed them. Cut-off read from the data, not from the text of the source: active = GI50 up to about 1.1 µM and inactive = higher.

Experiments:
Test in all cases: NCI-60 cell line screen, 48 h
MOLT-4 = test system: MOLT-4
SK-MEL-28 = test system: SK-MEL-28
UO-31 = test system: UO-31
OVCAR-4 = test system: OVCAR-4
SF-295 = test system: SF-295
T47D = test system: T47D
SK-OV-3 = test system: SK-OV-3
OVCAR-8 = test system: OVCAR-8
A549 = test system: A549
HL-60 = test system: HL-60
HCT-116 = test system: HCT-116
LOX IMVI = test system: LOX IMVI
U-251 = test system: U-251
NCI-H226 = test system: NCI-H226
NCI-H522 = test system: NCI-H522
SW-620 = test system: SW-620
OVCAR-5 = test system: OVCAR-5
SF-539 = test system: SF-539
BT-549 = test system: BT-549
MDA-MB-435 = test system: MDA-MB-435

Structure (SMILES) | GI50 (MOLT-4) | GI50 (SK-MEL-28) | GI50 (UO-31) | GI50 (OVCAR-4) | GI50 (SF-295) | GI50 (T47D) | GI50 (SK-OV-3) | GI50 (OVCAR-8) | GI50 (A549) | GI50 (HL-60) | GI50 (HCT-116) | GI50 (LOX IMVI) | GI50 (U-251) | GI50 (NCI-H226) | GI50 (NCI-H522) | GI50 (SW-620) | GI50 (OVCAR-5) | GI50 (SF-539) | GI50 (BT-549) | GI50 (MDA-MB-435)
CCOC(=O)C(NNS(=O)(=O)c1ccc(C)cc1)S(=O)(=O)C(F)(F)C(F)(F)C(F)(F)C(F)(F)F (centres undefined) | 81.8 µM (inactive) | > 100 µM (inactive) | > 100 µM (inactive) | > 100 µM (inactive) | 78.3 µM (inactive) | > 100 µM (inactive) | > 100 µM (inactive) | > 100 µM (inactive) | > 100 µM (inactive) | > 100 µM (inactive) | 64 µM (inactive) | > 100 µM (inactive) | 88.9 µM (inactive) | > 100 µM (inactive) | > 100 µM (inactive) | > 100 µM (inactive) | > 100 µM (inactive) | > 100 µM (inactive) | > 100 µM (inactive) | > 100 µM (inactive)
NS(=O)(=O)c1ccc(NCc2cccc3c(=O)c4ccc(Cl)cc4oc23)cc1 | 19.7 µM (inactive) | > 79.8 µM (inactive) | 25.5 µM (inactive) | > 95.9 µM (inactive) | 59.4 µM (inactive) | 81.3 µM (inactive) | > 71.8 µM (inactive) | 24.2 µM (inactive) | > 86.1 µM (inactive) | 3.68 µM (inactive) | 6.17 µM (inactive) | 20.9 µM (inactive) | 23.8 µM (inactive) | > 76.7 µM (inactive) | > 39.2 µM (inactive) | 6.38 µM (inactive) | > 100 µM (inactive) | 14.2 µM (inactive) | 42.5 µM (inactive) | 19.7 µM (inactive)
NC1=Nc2ccccc2Sc2nccn21 | 20.2 µM (inactive) | 35.8 µM (inactive) | 23.9 µM (inactive) | 30.6 µM (inactive) | 22.3 µM (inactive) | 24.7 µM (inactive) | > 100 µM (inactive) | 31.1 µM (inactive) | 41.7 µM (inactive) | 18.7 µM (inactive) | 27.5 µM (inactive) | 17.8 µM (inactive) | 32.8 µM (inactive) | 20.9 µM (inactive) | 19.3 µM (inactive) | 32.3 µM (inactive) | 48.8 µM (inactive) | 23.9 µM (inactive) | 54.3 µM (inactive) | 23.7 µM (inactive)
CC(=O)CCC[C@@H](C)[C@@H]1O[C@H]([C@@]2(C)CCC(=O)O2)C[C@H]2C(CSc3ccccc3)C(=O)O[C@@H]12 (some centres undefined) | 2.96 µM (inactive) | 18.7 µM (inactive) | 14.2 µM (inactive) | 13.2 µM (inactive) | 44.1 µM (inactive) | 17.9 µM (inactive) | 44.7 µM (inactive) | 20 µM (inactive) | 13.8 µM (inactive) | 2.42 µM (inactive) | 15.6 µM (inactive) | 12.4 µM (inactive) | 16.9 µM (inactive) | 14.8 µM (inactive) | 3.6 µM (inactive) | 10.3 µM (inactive) | 15.1 µM (inactive) | 14.6 µM (inactive) | 11.6 µM (inactive) | 16.1 µM (inactive)
NS(=O)(=O)c1ccc(NC(=O)c2cccc3cc4ccccc4nc23)cc1 | 2.7 µM (inactive) | > 91 µM (inactive) | 8.07 µM (inactive) | 21 µM (inactive) | 16.3 µM (inactive) | 96.6 µM (inactive) | > 88.7 µM (inactive) | 6.3 µM (inactive) | 10 µM (inactive) | 25.9 µM (inactive) | 4.69 µM (inactive) | 6.14 µM (inactive) | 23.4 µM (inactive) | 25.9 µM (inactive) | 17.1 µM (inactive) | 6.04 µM (inactive) | > 96.2 µM (inactive) | 13.8 µM (inactive) | 42.4 µM (inactive) | 34.3 µM (inactive)
C[n+]1cn(C2=C([N-]S(=O)(=O)c3ccccc3)C(=O)c3ccccc3C2=O)c2ccccc21 | 23.2 µM (inactive) | 36.1 µM (inactive) | > 100 µM (inactive) | 1.59 µM (inactive) | 61.4 µM (inactive) | 34.1 µM (inactive) | > 100 µM (inactive) | 20 µM (inactive) | 85.9 µM (inactive) | 13 µM (inactive) | 22.9 µM (inactive) | 12.7 µM (inactive) | 19.3 µM (inactive) | 56.4 µM (inactive) | 11.9 µM (inactive) | 28.6 µM (inactive) | > 100 µM (inactive) | 31.4 µM (inactive) | 20.9 µM (inactive) | 2.79 µM (inactive)
Cn1c(=O)c2nc(CCS)[nH]c2n(C)c1=O | > 100 µM (inactive) | > 100 µM (inactive) | > 100 µM (inactive) | > 100 µM (inactive) | > 100 µM (inactive) | > 100 µM (inactive) | 68.1 µM (inactive) | > 100 µM (inactive) | > 100 µM (inactive) | > 100 µM (inactive) | > 100 µM (inactive) | > 100 µM (inactive) | > 100 µM (inactive) | > 100 µM (inactive) | > 100 µM (inactive) | > 100 µM (inactive) | > 100 µM (inactive) | 74.8 µM (inactive) | > 100 µM (inactive) | > 100 µM (inactive)
C[C@H]1CC[C@]2(NC1)O[C@H]1C[C@H]3[C@@H]4CC[C@H]5C[C@@H](O[C@@H]6O[C@H](CO)[C@H](O[C@@H]7O[C@H](CO)[C@@H](O)[C@H](O[C@@H]8OC[C@@H](O)[C@H](O)[C@H]8O)[C@H]7O[C@@H]7O[C@H](CO)[C@@H](O)[C@H](O)[C@H]7O)[C@H](O)[C@H]6O)CC[C@]5(C)[C@H]4CC[C@]3(C)[C@H]1[C@@H]2C [TOMATINE] | 2.41 µM (inactive) | 1.26 µM (inactive) | 1.42 µM (inactive) | 1.39 µM (inactive) | 1.05 µM (active) | 1.97 µM (inactive) | 1.61 µM (inactive) | 2.24 µM (inactive) | 1.55 µM (inactive) | 2.48 µM (inactive) | 1.7 µM (inactive) | 2.17 µM (inactive) | 1.02 µM (active) | 1.95 µM (inactive) | 1.62 µM (inactive) | 2.04 µM (inactive) | 1.24 µM (inactive) | 1.56 µM (inactive) | 2.37 µM (inactive) | 1.41 µM (inactive)
CCOC(=O)c1c2c(n(Cc3ccccc3)c1C)C(=O)C(=O)c1ccccc1-2 | 0.17 µM (active) | 0.177 µM (active) | 0.906 µM (active) | 0.0794 µM (active) | 0.497 µM (active) | 0.579 µM (active) | 0.61 µM (active) | 0.237 µM (active) | 0.431 µM (active) | 0.0129 µM (active) | 0.235 µM (active) | 0.174 µM (active) | 0.263 µM (active) | 0.55 µM (active) | 0.778 µM (active) | 0.18 µM (active) | 0.541 µM (active) | 0.24 µM (active) | 0.337 µM (active) | 0.0612 µM (active)
O=C(O)CN(CC(=O)O)C1CCCCC1N1CC(=O)OC(=O)C1 (centres undefined) | > 100 µM (inactive) | > 100 µM (inactive) | > 100 µM (inactive) | > 100 µM (inactive) | > 100 µM (inactive) | 51.3 µM (inactive) | > 100 µM (inactive) | > 100 µM (inactive) | > 100 µM (inactive) | > 100 µM (inactive) | > 100 µM (inactive) | > 100 µM (inactive) | 43.4 µM (inactive) | > 100 µM (inactive) | > 100 µM (inactive) | 42.6 µM (inactive) | > 100 µM (inactive) | > 100 µM (inactive) | > 100 µM (inactive) | > 100 µM (inactive)
Nc1nccc(-c2c[nH]c3cc(Br)ccc23)n1 [MERIDIANIN D] | 24.7 µM (inactive) | 30.5 µM (inactive) | 18.7 µM (inactive) | 48.9 µM (inactive) | 35.3 µM (inactive) | 30.4 µM (inactive) | 29.1 µM (inactive) | 35.7 µM (inactive) | 15.7 µM (inactive) | 29.2 µM (inactive) | 18.6 µM (inactive) | 25.3 µM (inactive) | 30.8 µM (inactive) | 45.6 µM (inactive) | 17.7 µM (inactive) | 33.3 µM (inactive) | 17.5 µM (inactive) | 32.6 µM (inactive) | 31.2 µM (inactive) | 26.5 µM (inactive)
CN1C(=O)C(O)CC1c1ccc(C(F)(F)F)cc1 (centres undefined) | > 100 µM (inactive) | > 100 µM (inactive) | > 100 µM (inactive) | > 100 µM (inactive) | > 100 µM (inactive) | > 100 µM (inactive) | > 100 µM (inactive) | > 100 µM (inactive) | > 100 µM (inactive) | > 100 µM (inactive) | > 100 µM (inactive) | > 100 µM (inactive) | > 100 µM (inactive) | > 100 µM (inactive) | > 100 µM (inactive) | > 100 µM (inactive) | > 100 µM (inactive) | > 100 µM (inactive) | > 100 µM (inactive) | > 100 µM (inactive)
COC(=O)C(=O)C(C(=O)C(=O)Nc1nc2ccc(C)cc2s1)c1nc2ccc([N+](=O)[O-])cc2nc1O (centres undefined) |  | > 100 µM (inactive) | 58.5 µM (inactive) | > 10 µM (inactive) | > 100 µM (inactive) | > 100 µM (inactive) | > 100 µM (inactive) | > 100 µM (inactive) | > 100 µM (inactive) | > 100 µM (inactive) | > 100 µM (inactive) | > 100 µM (inactive) | > 100 µM (inactive) | > 100 µM (inactive) | > 100 µM (inactive) | > 100 µM (inactive) | > 100 µM (inactive) | > 100 µM (inactive) | > 100 µM (inactive) | > 100 µM (inactive)
